The results in this text go back to patent publication US8119588B2, “Hard surface cleaner compositions of sulfonated estolides and other derivatives of fatty acids and uses thereof” (Stepan Company, priority 2009, dated 2012).

Data set [1] is described as follows: Surface activity by Kruss K12 tensiometer. Conditions: 25° C. in deionized water. The format is physicochemical. Here is the method:
The surface activity was measured using a Kruss K12 tensiometer at 25° C. in deionized water. The critical micelle concentration (CMC) and the surface tension at CMC are important properties for a surfactant. CMC indicates the minimum concentration of a surfactant that forms aggregates. […] The surface tension indicates how efficient a surfactant can reduce the surface energy of water. Lower surface tension is favorable for wetting and cleansing.

Data set [2] can be described thus: Coupling ability (hydrotrope requirement) with nonionic surfactants of different HLB. Type of data set: physicochemical. Here is the method: Sodium xylene sulfonate (SXS) is often used as a hydrotrope to clarify cloudy formulations. […] In Table 2, the measurement of the amount of hydrotrope or surfactant needed to clear the solution was determined.
The compositions described in Table 2 are made in accordance with the following steps: • Add the water and trisodium citrate and mix until the solution is clear. Add BIO-SOFT® N25-9 slowly until the solution is homogeneous. Add BIO-SOFT® N25-3 and mix until the solution is homogeneous. If the final solution is cloudy, then continue adding the hydrotrope or surfactant and agitate until solution is clear.

Regarding `CCCCCCCCCCCCOS(=O)(=O)[O-].[Na+]` [STEPANOL WA-EXTRA, Sodium Lauryl Sulfate], in data set [1], the CMC is given as 184.8 mg/L and the “Surface Tension @CMC” value is reported as 26.3 mN/m.
Consider “Sodium Laureth Sulfate, 2EO [STEOL CS-230]”, for which, in data set [1], the CMC was 171 mg/L and the “Surface Tension @CMC” value came to 25 mN/m.
For “Sodium Laureth Sulfate, 3EO [STEOL CS-330]” the same measures were 75 mg/L and 30 mN/m.
Regarding Sodium xylene sulfonate [SXS], the Final appearance result in data set [2] (after adding hydrotrope or surfactant to cloudy nonionic blend) is given as “clear”. The “hydrotrope requirement (actives)” value in data set [2] (amount needed to clear blend of 5% Bio-soft N25-9, 5% Bio-Soft N25-3, 1% trisodium citrate) came to 5.3 % actives.
